In patent US12304890B2, “R-type pyridyloxycarboxylic acid, salt and ester derivative thereof, and preparation method therefor, and herbicidal composition and application thereof” (Qingdao Kingagroot Chemical Compound Co., Ltd., priority 2018, dated 2025):

What was measured:
Format in all cases: in vivo
[1] = test system: Monocotyledonous and dicotyledonous weed seeds and main crop seeds; experiment: Post-emergence test experiment, other weeds and crops (Table 4, 1000 g a.i./ha); details: 3 weeks in greenhouse, fresh weight inhibition
Outline: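 Growth inhibition is scored on fresh weight. Spray solutions were made in acetone with tween-80, diluted in water, plus 1.5 L/ha methyl oleate emulsible concentrate. Plants from greenhouse-grown weed and crop seeds were treated post-emergence at 2-3 leaves, 2 weeks after sowing.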

Digitaria sanguinalis = experiment: Post-emergence test experiment, Digitaria sanguinalis; details: for Digitaria sanguinalis, activity level (growth inhibition rate) / inhibition at 200 g/ha: 200 g a.i./ha, 3 weeks, weed resistant to cyhalofop-butyl; for Activity level (growth inhibition rate), Digitaria sanguinalis: 1000 g a.i./ha, 3 weeks in greenhouse, fresh weight inhibition
Outline: (§1)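 Greenhouse post-emergence spray at 2-3 leaf stage (2 wk after sowing); acetone/tween-80 formulation, methyl oleate EC synergist 1.5 L/ha, water-diluted. Plants held 3 wk, then fresh weight inhibition rate read.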

[2] = test system: Semen Euphorbiae Lathyridis; experiment: Post-emergence test experiment, Semen Euphorbiae Lathyridis; details: for Semen Euphorbiae Lathyridis, activity level (growth inhibition rate) / inhibition at 200 g/ha: 200 g a.i./ha, 3 weeks, weed resistant to cyhalofop-butyl
Method: (§2) The above described growth inhibition rate is fresh weight inhibition rate.
(§3) Post-emergence test experiment: Monocotyledonous and dicotyledonous weed seeds and main crop seeds (i. e. wheat, corn, rice, soybean, cotton, oilseed, millet and sorghum.) were put into a plastic pot loaded with soil. Then covered with 0.5-2 cm soil, the seeds were allowed to grow in good greenhouse environment. The test plants were treated at 2-3 leaf stage 2 weeks after sowing. The test compounds of the invention were dissolved with acetone respectively, then added with tween-80, and using 1.5 liters per hectare of an emulsible concentrate of methyl oleate as a synergist, and diluted by certain amount of water to certain concentration. The solution was sprayed to the plants with a sprayer. Then the plants were cultured for 3 weeks in the greenhouse, and the experiment result of weed controlling effect was listed in tables 4-5.

Echinochloa crusgalli = experiment: Post-emergence test experiment, Echinochloa crusgalli; details: for Echinochloa crusgalli, activity level (growth inhibition rate) / inhibition at 200 g/ha: 200 g a.i./ha, 3 weeks, weed resistant to ALS inhibitor and ACCe herbicides; for Activity level (growth inhibition rate), Echinochloa crusgalli: 1000 g a.i./ha, 3 weeks in greenhouse, fresh weight inhibition
Outline: as §1

rice = experiment: Post-emergence test experiment, rice (crop selectivity); details: 3 weeks
Method: as §2, §3

[3] = Digitaria sanguinalis, 504 h, read-out: Digitaria sanguinalis, activity level (growth inhibition rate)
[4] = 504 h, read-out: Semen Euphorbiae Lathyridis, activity level (growth inhibition rate)
[5] = Echinochloa crus-galli, 504 h, read-out: Echinochloa crusgalli, activity level (growth inhibition rate)

| Compound | Activity level (growth inhibition rate), Abutilon theophrasti Medic. [1] | Activity level (growth inhibition rate), Galium aparine [1] | Activity level (growth inhibition rate), Monochoria Vaginalis [1] | Digitaria sanguinalis, activity level (growth inhibition rate) (Digitaria sanguinalis) | Activity level (growth inhibition rate), Digitaria sanguinalis (Digitaria sanguinalis) | Semen Euphorbiae Lathyridis, activity level (growth inhibition rate) [2] | Echinochloa crusgalli, activity level (growth inhibition rate) (Echinochloa crusgalli) | Activity level (growth inhibition rate), Echinochloa crusgalli (Echinochloa crusgalli) | rice, activity level (growth inhibition rate) (rice; 200 g a.i./ha) | inhibition at 300 g/ha (Digitaria sanguinalis; [3]) [%] | rice, activity level (growth inhibition rate) (rice; 300 g a.i./ha) | inhibition at 300 g/ha [2, 4] [%] | inhibition at 300 g/ha (Echinochloa crusgalli; [5]) [%] | inhibition at 200 g/ha (Echinochloa crusgalli; [5]) [%] | inhibition at 200 g/ha (Digitaria sanguinalis; [3]) [%] | inhibition at 200 g/ha [2, 4] [%] |
| --- | --- | --- | --- | --- | --- | --- | --- | --- | --- | --- | --- | --- | --- | --- | --- | --- |
| COC(=O)[C@@H](C)Oc1ncc(Cl)c(N)c1Cl [Compound 2-30] | 5 (Level 5: the growth inhibition rate is greater than 85%) | 5 (Level 5: the growth inhibition rate is greater than 85%) | 5 (Level 5: the growth inhibition rate is greater than 85%) | 5 (Level 5: the growth inhibition rate is greater than 85%) | 5 (Level 5: the growth inhibition rate is greater than 85%) | 4 (Level 4: the growth inhibition rate is equal to or greater than 60% and less than 85%) | 4 (Level 4: the growth inhibition rate is equal to or greater than 60% and less than 85%) | 5 (Level 5: the growth inhibition rate is greater than 85%) |  |  |  |  |  |  |  |  |
| CCSC(=O)[C@@H](C)Oc1nc(F)c(Cl)c(N)c1Cl [Compound 2-72] | 5 (Level 5: the growth inhibition rate is greater than 85%) | 5 (Level 5: the growth inhibition rate is greater than 85%) | 5 (Level 5: the growth inhibition rate is greater than 85%) | 5 (Level 5: the growth inhibition rate is greater than 85%) | 5 (Level 5: the growth inhibition rate is greater than 85%) | 5 (Level 5: the growth inhibition rate is greater than 85%) | 5 (Level 5: the growth inhibition rate is greater than 85%) | 5 (Level 5: the growth inhibition rate is greater than 85%) | 0 (Level 0: the growth inhibition rate is less than 5%) |  |  |  |  |  |  |  |
| CCCCCSC(=O)[C@@H](C)Oc1nc(F)c(Cl)c(N)c1Cl [Compound 2-86] | 5 (Level 5: the growth inhibition rate is greater than 85%) | 5 (Level 5: the growth inhibition rate is greater than 85%) | 5 (Level 5: the growth inhibition rate is greater than 85%) | 5 (Level 5: the growth inhibition rate is greater than 85%) | 5 (Level 5: the growth inhibition rate is greater than 85%) | 5 (Level 5: the growth inhibition rate is greater than 85%) | 5 (Level 5: the growth inhibition rate is greater than 85%) | 5 (Level 5: the growth inhibition rate is greater than 85%) | 0 (Level 0: the growth inhibition rate is less than 5%) |  |  |  |  |  |  |  |
| CCCC(C)COC(=O)[C@@H](C)Oc1nc(F)c(Cl)c(N)c1Cl (stereo partly drawn) [Compound 2-103] | 5 (Level 5: the growth inhibition rate is greater than 85%) | 5 (Level 5: the growth inhibition rate is greater than 85%) | 5 (Level 5: the growth inhibition rate is greater than 85%) | 5 (Level 5: the growth inhibition rate is greater than 85%) | 5 (Level 5: the growth inhibition rate is greater than 85%) | 5 (Level 5: the growth inhibition rate is greater than 85%) | 5 (Level 5: the growth inhibition rate is greater than 85%) | 5 (Level 5: the growth inhibition rate is greater than 85%) | 0 (Level 0: the growth inhibition rate is less than 5%) |  |  |  |  |  |  |  |
| CCCCC(C)OC(=O)[C@@H](C)Oc1nc(F)c(Cl)c(N)c1Cl (stereo partly drawn) [Compound 2-113] | 5 (Level 5: the growth inhibition rate is greater than 85%) | 5 (Level 5: the growth inhibition rate is greater than 85%) | 5 (Level 5: the growth inhibition rate is greater than 85%) | 5 (Level 5: the growth inhibition rate is greater than 85%) | 5 (Level 5: the growth inhibition rate is greater than 85%) | 5 (Level 5: the growth inhibition rate is greater than 85%) | 5 (Level 5: the growth inhibition rate is greater than 85%) | 5 (Level 5: the growth inhibition rate is greater than 85%) | 0 (Level 0: the growth inhibition rate is less than 5%) |  |  |  |  |  |  |  |
| CCCCCCCOC(=O)[C@@H](C)Oc1nc(F)c(Cl)c(N)c1Cl [Compound 2-121] | 5 (Level 5: the growth inhibition rate is greater than 85%) | 5 (Level 5: the growth inhibition rate is greater than 85%) | 5 (Level 5: the growth inhibition rate is greater than 85%) | 5 (Level 5: the growth inhibition rate is greater than 85%) | 5 (Level 5: the growth inhibition rate is greater than 85%) | 5 (Level 5: the growth inhibition rate is greater than 85%) | 5 (Level 5: the growth inhibition rate is greater than 85%) | 5 (Level 5: the growth inhibition rate is greater than 85%) | 0 (Level 0: the growth inhibition rate is less than 5%) |  |  |  |  |  |  |  |
| CC(C)=NOC(=O)C(C)Oc1nc(F)c(Cl)c(N)c1Cl (stereo not drawn) [Compound 2-292] | 5 (Level 5: the growth inhibition rate is greater than 85%) | 5 (Level 5: the growth inhibition rate is greater than 85%) | 5 (Level 5: the growth inhibition rate is greater than 85%) | 5 (Level 5: the growth inhibition rate is greater than 85%) | 5 (Level 5: the growth inhibition rate is greater than 85%) | 5 (Level 5: the growth inhibition rate is greater than 85%) | 5 (Level 5: the growth inhibition rate is greater than 85%) | 5 (Level 5: the growth inhibition rate is greater than 85%) |  |  |  |  |  |  |  |  |
| CCCCOC(=O)[C@@H](C)Oc1ccc(Oc2ccc(C#N)cc2F)cc1 [cyhalofop-butyl, reference compound] |  |  |  |  |  |  |  |  |  | 5 to 20 | 0 (Level 0: the growth inhibition rate is less than 5%) | 5 to 20 | 5 to 20 |  |  |  |
| CC(Oc1nc(F)c(Cl)c(N)c1Cl)C(=O)OCC1CCCO1 (stereo not drawn) [drawing 482, reference compound] |  |  |  |  |  |  |  |  | 0 (Level 0: the growth inhibition rate is less than 5%) |  |  |  |  | 40 to 60 |  |  |
| CC(Oc1nc(Cl)c(Cl)c(N)c1Cl)C(=O)O (stereo not drawn) [reference compound] |  |  |  |  |  |  |  |  |  |  |  |  |  | 20 to 40 | 40 to 60 | 40 to 60 |
| CC(Oc1nc(F)c(Cl)c(N)c1Cl)C(=O)O (stereo not drawn) [reference compound] |  |  |  |  |  |  |  |  | 2 (Level 2: the growth inhibition rate is equal to or greater than 20% and less than 40%) |  |  |  |  | 20 to 40 | 40 to 60 | 40 to 60 |
| CCOC(=O)C(C)Oc1nc(F)c(Cl)c(N)c1Cl (stereo not drawn) [reference compound] |  |  |  |  |  |  |  |  | 1 (Level 1: the growth inhibition rate is equal to or greater than 5% and less than 20%) |  |  |  |  | 20 to 40 | 20 to 40 | 40 to 60 |
| CCOC(=O)[C@H](C)Oc1nc(F)c(Cl)c(N)c1Cl [reference compound] |  |  |  |  |  |  |  |  |  |  |  |  |  | 5 to 20 | 5 to 20 | 5 to 20 |
